Assay results: US20170253601A1, “Substituted Pyrrolidine Compounds” (EPIZYME, INC., priority 2014, published 2017)
pIC50: −log10 of the molar value.

Target: T1, SMYD2 (Homo sapiens, UniProt Q9NRG4)
T1 construct: Full length SMYD2 (NP 064582.2) was cloned; His6 (N, cleaved yes); FLAG (N); made in house; host or cells: Sf9 insect cells
T1 sequence (Q9NRG4 whole entry): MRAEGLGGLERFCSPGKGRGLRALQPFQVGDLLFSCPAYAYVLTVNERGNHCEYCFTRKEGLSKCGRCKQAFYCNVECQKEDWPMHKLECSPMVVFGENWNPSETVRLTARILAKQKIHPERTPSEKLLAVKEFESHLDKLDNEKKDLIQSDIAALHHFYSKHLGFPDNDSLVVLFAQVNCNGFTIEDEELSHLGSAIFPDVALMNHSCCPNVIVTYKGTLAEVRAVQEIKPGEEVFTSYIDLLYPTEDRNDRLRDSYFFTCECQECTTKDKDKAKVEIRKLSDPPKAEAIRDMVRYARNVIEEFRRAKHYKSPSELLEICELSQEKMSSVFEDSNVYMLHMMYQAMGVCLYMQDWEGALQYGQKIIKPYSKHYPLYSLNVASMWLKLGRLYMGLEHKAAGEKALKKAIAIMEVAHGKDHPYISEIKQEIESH
Test: SMYD2 Biochemical Assay (3H-SAM, biotinylated peptide substrate, Flashplate)
Conditions: IC50 values are an average of n = 1 to n = 50; read-out: SMYD2 Biochem IC50 (μM)*
In short: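 Full-length His/FLAG-tagged SMYD2 expressed in Sf9 cells with tag cleaved, 1.5 nM, pre-incubated 30 min at room temperature with compound, then 10 nM 3H-SAM and 60 nM biotinylated peptide added. Buffer 20 mM Bicine pH 7.6, 1 mM TCEP, 0.005% BSG, 0.002% Tween20, 2% DMSO. Stopped with 600 uM cold SAM; 3H-peptide captured on streptavidin Flashplate; IC50 by curve fit.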
Work on C[C@H](c1ccccc1)N1C[C@@H](CO)[C@H](NC(=O)c2cc(C3CC3)on2)C1 [compound 119, 5-cyclopropyl-N-[(3S,4R)-4-(hydroxymethyl)-1-[(1R)-1-phenylethyl]pyrrolidin-3-yl]-1,2-oxazole-3-carboxamide] yielded an IC50 of 38.2 µM. In the case of O=C(N[C@@H]1CN(C2CC2)C[C@H]1CO)c1cc(C2CC2)on1 [compound 168, 5-cyclopropyl-N-[(3S,4R)-1-cyclopropyl-4-(hydroxymethyl)pyrrolidin-3-yl]-1,2-oxazole-3-carboxamide], the IC50 was 43.2 µM. Molecule C[C@@H]1CN(Cc2ccc3nonc3c2)C[C@H]1NC(=O)c1cc(C2CC2)on1 [compound 182, N-[(3S,4R)-1-(2,1,3-benzoxadiazol-5-ylmethyl)-4-methyl-pyrrolidin-3-yl]-5-cyclopropyl-1,2-oxazole-3-carboxamide] has an IC50 of over 50 µM. For CC(C)N1C[C@@H](C)[C@@H](NC(=O)c2cc(C3CC3)on2)C1 [compound 234, 5-cyclopropyl-N-[(3R,4R)-4-methyl-1-(propan-2-yl)pyrrolidin-3-yl]-1,2-oxazole-3-carboxamide], the IC50 was 0.682 µM. Molecule C[C@@H]1CN(C2CC2)C[C@@H]1NC(=O)c1cc(C2CC2)on1 [compound 235, 5-cyclopropyl-N-[(3R,4R)-1-cyclopropyl-4-methyl-pyrrolidin-3-yl]-1,2-oxazole-3-carboxamide] has an IC50 of 1.15 µM. With CC(C)N1CC(CNC(=O)c2ccccc2)C(NC(=O)c2cc(C3CC3)on2)C1 (centres unmarked) [compound 237, 5-cyclopropyl-N-{4-[(phenylformamido)methyl]-1-(propan-2-yl)pyrrolidin-3-yl}-1,2-oxazole-3-carboxamide] the IC50 was 10.5 µM. CC(C)N1C[C@@H](NC(=O)c2cc(C3CC3)on2)[C@](C)(O)C1 [compound 245, 5-cyclopropyl-N-[(3R,4R)-4-hydroxy-4-methyl-1-(propan-2-yl)pyrrolidin-3-yl]-1,2-oxazole-3-carboxamide] showed an IC50 of 6.8 µM. For CC(C)N1C[C@H](NC(=O)c2cc(C3CC3)on2)[C@@](C)(O)C1 [compound 246, 5-cyclopropyl-N-[(3S,4S)-4-hydroxy-4-methyl-1-(propan-2-yl)pyrrolidin-3-yl]-1,2-oxazole-3-carboxamide], the IC50 was over 50 µM. Work on CC(N1C[C@@H](C)[C@H](NC(=O)c2cc(C3CC3)on2)C1)C(F)(F)F (stereo partly drawn) [compound 247, trans-5-cyclopropyl-N-[(3S,4R)-4-methyl-1-(1,1,1-trifluoropropan-2-yl)pyrrolidin-3-yl]-1,2-oxazole-3-carboxamide] yielded an IC50 of over 50 µM.

Same assay, conditions: Table 1; average of n = 1 to n = 50; read-out: SMYD2 Biochem IC50
For O=C(NC1CCN(C2CC2)C1)c1cc(C2CC2)on1 (centres unmarked) [compound 36, 5-cyclopropyl-N-(1-cyclopropylpyrrolidin-3-yl)isoxazole-3-carboxamide], the pIC50 was 4.49. With O=C(NC1CNCC1O)c1cc(C2CC2)on1 (centres unmarked) [compound 37, 5-cyclopropyl-N-(4-hydroxypyrrolidin-3-yl)isoxazole-3-carboxamide] the pIC50 was 4.44. Molecule CC(C)N1C[C@@H](C)[C@H](NC(=O)c2cc(C3CC3)on2)C1 [compound 41, 5-cyclopropyl-N-((3S,4R)-1-isopropyl-4-methylpyrrolidin-3-yl)isoxazole-3-carboxamide] has a pIC50 of 4.74. Molecule CC(C)N1C[C@H](NC(=O)c2cc(C3CC3)on2)[C@@H](C)C1 [compound 42, 5-cyclopropyl-N-((3R,4S)-1-isopropyl-4-methyl-pyrrolidin-3-yl)isoxazole-3-carboxamide] has a pIC50 of 5.72.

Test system: esophageal, liver and breast cancer cell lines
Test: not given
Conditions: several esophageal, dose-dependent; cited from earlier work
For Cc1cn(CCN2CCN(c3ccccc3-c3cc(C#N)cc(C(=O)NCCCN4CCCC4)c3)CC2)c2ccccc12 [LLY-507], the “inhibition of proliferation of cancer cell lines” value is given as “inhibited the proliferation”.
